Test results published in article PMC9145865, “Effects of Rare Phytocannabinoids on the Endocannabinoid System of Human Keratinocytes” (International Journal of Molecular Sciences, 2022).

Tests used:
HaCaT cells = assay: MTT cytotoxicity assay; format: cell-based, human; settings: for relative toxicity on HaCaT cells: 6-24 h; for IC50: Homo sapiens, HaCaT cell viability
Description: Immortalized HaCaT cells from the original depositor (DKFZ, Heidelberg) were purchased from CLS-Cell Lines Service (code 300493) and were of […] skin type (phototype). In all experiments, the HaCaT cells were cultured at 37 °C in a humidified 5% CO2 atmosphere in high-glucose Dulbecco’s Modified Eagle Medium (DMEM-HG), which was supplemented with 10% fetal bovine serum, and were used at the 5th–6th passage. Specific pCBs (CBG, CBC, THCV and CBGA) were used to treat the HaCaT cells at different time points (6 h, 12 h and 24 h) and at different concentrations (0.5 µM, 1.0 µM, 2.5 µM, 5.0 µM, 10 µM and 25 µM). Various doses of these pCBs were added directly to culture medium (with 1% fetal bovine serum) and the vehicles alone were added to controls, as follows: 0.8% methanol for CBG and CBC; 0.6% methanol for THCV; 0.6% acetonitrile for CBGA.
The HaCaT cells were seeded into 96-well plates at a density of 1 × 10^4 per well, incubated overnight and then treated with the selected pCBs at different concentrations (0.5 μM, 1.0 μM, 2.5 μM, 5.0 μM, 10 μM and 25 μM) for 6 h, 12 h and 24 h. Cell viability was assessed using a mitochondrial-dependent reduction of 3-[4,5-dimethylthiazol-2-yl]-2,5-diphenyl tetrazolium bromide (MTT) to purple formazan. After 4 h, the MTT solution was discarded and dimethyl sulfoxide (DMSO) was added to dissolve the formazan crystals. The cell viability was calculated by subtracting the 630 nm OD background from the 570 nm OD total signal of the cell-free blank of each sample and was expressed as percentage of the control (100%).

GPR55 = assay: qRT-PCR gene expression of GPR55; format: cell-based, human; settings: HaCaT cells, half-IC50 dose, 24 h, vs. control
Description: The HaCaT cells were seeded into 6-well plates at a density of 4 × 10^4 per well, incubated overnight and then treated with the selected pCBs (CBG (6.0 µM), CBC (4.0 µM), THCV (9.0 µM) and CBGA (13.0 µM)) for 24 h. The cell pellets were collected and RT-PCR reactions were performed using the RevertAid H Minus First Strand cDNA Synthesis Kit. The relative abundance was assessed via RT quantitative PCR (RT-qPCR) using the SensiFAST SYBR Lo-ROX Kit in an Applied Biosystems 7500 Fast Real-Time PCR System (Life Technologies). To provide the precise quantification of the initial target in each PCR reaction, the amplification plot was examined, as well as the point of early log phase of the product accumulation, which was defined by assigning a fluorescence threshold above the background that was defined as the threshold cycle number or “Ct. Differences” in threshold cycle number that was used to quantify the relative amount of the PCR targets that were contained within each tube. After PCR, a dissociation curve (melting curve) was constructed in the range of 60 °C to 95 °C [62] to evaluate the specificity of the amplification products. The relative expression of the different amplicons was calculated using the delta–delta Ct (ΔΔCt) method and then converted into the relative expression ratio (2^−ΔΔCt) for statistical analysis. All data were normalized to the endogenous reference genes β-actin and glyceraldehyde-3-phosphate dehydrogenase. The specific primers (Table 5) that were used were designed and ordered from Integrated DNA Technologies (IDT; Coralville, IA, USA) with the following sequences: […]

TRPV1 [1] = assay: Western blot protein expression of TRPV1; format: cell-based, human; settings: HaCaT cells, half-IC50 dose, 24 h, vs. control
Description: (§1) The HaCaT cells were seeded into 6-well plates at a density of 4 × 10^4 per well, incubated overnight and then treated with the selected pCBs (6.0 µM of CBG, 4.0 µM of CBC, 9.0 µM of THCV and 13.0 µM of CBGA) for 24 h. The cell pellets were collected and then lysed in an ice-cold lysis buffer (10 mM of EDTA, 50 mM of pH 7.4 Tris–HCl, 150 mM of sodium chloride, 1% Triton-X-100, 2 mM of phenylmethylsulfonyl fluoride, 2 mM of sodium orthovanadate, […] of leupeptin and […] of aprotinin). The amount of protein was determined using the Bio-Rad Protein assay (Bio-Rad Laboratories, Hemel Hempstead, UK). An equal amount of protein (60 µg) was loaded onto 10% sodium dodecyl sulfate–polyacrylamide gels and blotted onto polyvinylidene fluoride sheets (Amersham Biosciences, Piscataway, NJ, USA). The membranes were blocked with dried 5% non-fat milk for 1 h and then incubated with suitable primary antibodies. Detection was performed using Azure Biosystems c400 (Dublin, CA, USA). The membranes were stripped using the Restore Western Blot Stripping Buffer from Thermo Fisher Scientific (Waltham, MA, USA) for 30 min under agitation at room temperature, according to the manufacturer’s instructions. The primary antibodies (Table 6) that were used were obtained from the following sources: […]

TRPV1 [2] = assay: TRPV1 calcium assay (capsaicin-triggered intracellular Ca2+ release); format: cell-based, human; settings: HaCaT cells, half-IC50 amount, 24 h; capsaicin 1 µM; vs. control
Description: The effects of the pCBs on intracellular Ca^2+ release that was induced by TRPV1 activation was determined using the selective intracellular fluorescent probe Fluo-3 AM (Molecular probes, Eugene, OR, USA). The HaCaT cells (1 × 10^6 cells) were loaded for 15 min at 25 °C with 4 µM of Fluo-3 AM, which contained 0.02% Pluronic F-127 (Molecular probes) in an OPTIMEM medium, and then they were washed in the Tyrode’s buffer (145 mM of NaCl, 2.5 mM of KCl, 1.5 mM of CaCl2, 1.2 mM of MgCl2, 10 mM of D-glucose and 10 mM of HEPES; pH 7.4), resuspended in 2 mL of the Tyrode’s buffer and transferred into the quartz cuvette of the LS50B spectrofluorometer (Perkin Elmer, Waltham, MA, USA). Fluorescence was measured at 25 °C (excitation at λ = 488 nm; emission at λ = 516 nm) from the HaCaT cells, which had been pre-incubated with each pCB (6.0 µM of CBG, 4.0 of µM CBC, 9.0 µM of THCV and 13.0 µM of CBGA) and then stimulated with the selective TRPV1 agonist capsaicin (1 µM), as reported in [64]. The TRPV1-mediated intracellular Ca^2+ elevation was expressed as fluorescence intensity (arbitrary units, AU) per 10^6 cells.

PPARδ = assay: Western blot protein expression of PPARδ; format: cell-based, human; settings: HaCaT cells, half-IC50 dose, 24 h, vs. control
Description: as §1

CB2 = assay: Western blot protein expression of CB2; format: cell-based, human; settings: HaCaT cells, half-IC50 dose, 24 h, vs. control
Description: as §1

NAPE-PLD = assay: Western blot protein expression of NAPE-PLD; format: cell-based, human; settings: HaCaT cells, half-IC50 dose, 24 h, vs. control
Description: as §1

human TRPV1 = tested on: human TRPV1; design: method as in PMID 21175579; settings: over-expressed by HEK-293 cells; ref [41]; cited from earlier work

Row | SMILES | relative toxicity on HaCaT cells (HaCaT cells) | IC50 (HaCaT cells; 6 h) [µM] | IC50 (HaCaT cells; 12 h) [µM] | IC50 (HaCaT cells; 24 h) [µM] | Gene Expression GPR55 (GPR55) | gene expression of GPR55 (in words) (GPR55) | Protein Expression TRPV1 (TRPV1 [1]) | TRPV1 channel stimulation (intracellular Ca2+ release triggered by capsaicin) (TRPV1 [2]) | PPARδ protein expression (in words) (PPARδ) | Protein Expression PPARδ (PPARδ) | CB2 protein expression (in words) (CB2) | Protein Expression CB2 (CB2) | NAPE-PLD protein expression (in words) (NAPE-PLD) | Protein Expression NAPE-PLD (NAPE-PLD) | effectiveness in human TRPV1 (human TRPV1)
1 | CCCCCc1cc(O)c(C/C=C(\C)CCC=C(C)C)c(O)c1C(=O)O [CBGA, cannabigerolic acid] | least toxic | > 25 | 24.5 | > 25 | GPR55 ↑+++ | significant increase | ↑++++ | significantly increased | significantly reduced | ↓++++ | reducing | ↓++++ | significantly increased | NAPE-PLD ↑++++ FAAH ↑++++ DAGLα ↑++++ MAGL ↑++++ | –
2 | CCCc1cc(O)c2c(c1)OC(C)(C)[C@@H]1CCC(C)=C[C@@H]21 [THCV, Δ^9-tetrahydrocannabivarin] | least toxic | 14.3 | 22.4 | 18.6 | ↑++++ | significant increase | ↑++++ | significantly increased | significantly reduced | ↓++++ | reducing | ↓+++ | significantly increased | ↑++++ | high effectiveness
3 | CCCCCc1cc(O)c2c(c1)OC(C)(CCC=C(C)C)C=C2 (stereo not drawn) [CBC, cannabichromene] | – | 15.3 | 15.6 | 8.2 | ↓++++ | reduced | ↑++++ | significantly increased | significantly reduced | ↓++++ | reducing | ↓+ | significantly increased | – | to a lesser extent
4 | CCCCCc1cc(O)c(C/C=C(\C)CCC=C(C)C)c(O)c1 [CBG, cannabigerol] | – | 13.5 | 13 | 11.7 | – | – | ↑++++ | significantly increased | significantly reduced | ↓+++ | reducing | ↓+ | significantly increased | ↑++++ | high effectiveness
